Consider one compound from patent publication US20040106545A1, “Compounds and methods for modulating cell adhesion” (priority 1996, published 2004).

Structures are written as SMILES. pEC50: −log10 of the molar value.

Assay [1] concerns Madin Darby canine kidney (MDCK) cells. It is filed as cell-based. The conditions noted are these: 18 h.
Assay [2] has as its system Human saphenous vein vascular smooth muscle cells. In words: Vascular smooth muscle cell migration after scrape-wounding. It is filed as cell-based. The conditions noted are these: 1 mg/mL, 24 hours after wounding. Here is the method: An illustrative assay for evaluating the modulating of vascular smooth muscle cell migration may be performed as follows (as described in Example 23). Human saphenous vein vascular smooth muscle cells are explanted from surplus segments of vein from patients undergoing coronary artery bypass surgery. Cells are maintained in Dulbecco's modified essential medium supplemented with penicillin, streptomycin, L-glutamine and 10% fetal calf serum and are grown to confluence on glass coverslips in the presence or absence of collagen type I. The cell layer is then subjected to scrape-wounding by drawing a fine cell scraper across the coverslip. Proliferation of the vascular smooth muscle cells is inhibited by addition of 2 mM hydroxyurea to the culture media. […] The migratory capacity of the vascular smooth muscle cells is assessed by measuring the distance of migration into the wound area (outermost 100 μm from the wound) using image analysis software at 24 hours after wounding.
Human saphenous vein vascular smooth muscle cells were explanted from surplus segments of vein from patients undergoing coronary artery bypass surgery. […] The migratory capacity of the vascular smooth muscle cells was assessed by measuring the distance of migration into the wound area (outermost 100 μm from the wound) using image analysis software at 24 hours after wounding.

In general, pEC50 refers to the negative decadic logarithm of the EC50, by convention in mol/L. Read a low pEC50 as a high EC50. In turn, `CC(=O)N[C@H]1CSSC[C@@H](C(N)=O)NC(=O)[C@H](C(C)C)NC(=O)[C@H](C)NC(=O)[C@H](Cc2c[nH]cn2)NC1=O` [N—Ac—CHAVC—NH2, N-Ac-Cys-His-Ala-Val-Cys-NH2] showed a negative logarithm of the EC50 (pEC50) in assay [1] of 3.57. The results for the “reduction of vascular smooth muscle cell migration” value in assay [2] (collagen) and in assay [2] (glass) were 56±5% and 53±8%, respectively.
